Data on two compounds can be found in article PMC5459956 (International Journal of Nanomedicine, 2017).

pIC50: −log10 of the molar value.

Series [1] deals with healthy bronchial epithelial cells. Conditions: in vitro; cited from earlier work.
The conditions of series [2]: cited from earlier work.
A further series has as its system MV-4–11 cells. The experiment in a line: MV-4–11 cytotoxicity assay. It counts as cell-based. Conditions: read-out: 72-h IC50, 72 h exposure, PrestoBlue.
Series [3] deals with ROS generation in MV-4–11 cells. The experiment in a line: Reactive oxygen species assay. It counts as cell-based. Conditions: 4 h, Cu(DDC)2 200 µM, menadione 50 µM, versus cell-free condition.

Take `CCN(CC)C(=S)[S-].CCN(CC)C(=S)[S-].[Cu+2]` [Cu(DDC)2, Copper diethyldithiocarbamate]: the “effect in healthy bronchial epithelial cells” value in series [1] is on record as “did not have any effect”. The “solubility (slightly soluble precipitate)” value in series [2] was below 100 µg/mL. The pIC50 in the series on MV-4–11 cells is around 6.96.
Regarding `CC1=CC(=O)c2ccccc2C1=O` [Menadione, menadione], the ROS generation entry in series [3] was “ROS formation in the cells was evident”.

What is called pIC50 is the IC50 on a negative log10 scale, so that one unit is a factor of ten.
